Measured values: US20040097522A1, “Triazolopyrimidines” (priority 2000, published 2004)

Test: logP determination
Assay type: physicochemical
Conditions: Table 1 logP

SMILES | logP
C=C(Cl)CN(CCCF)c1c(-c2cc(C(F)(F)F)ccc2C(F)(F)F)c(F)nc2ncnn12 [Example 50] | 3.77
CN(C)C(=O)CN(CCCF)c1c(-c2cc(C(F)(F)F)ccc2C(F)(F)F)c(Cl)nc2ncnn12 [Example 3] | 2.89
CCOC(CN(CCCF)c1c(-c2cccc3c2OC(F)(F)O3)c(Cl)nc2ncnn12)OCC [Example 31] | 3.81
CCOC(CN(CCCF)c1c(-c2ccc(C(F)(F)F)cc2F)c(Cl)nc2ncnn12)OCC [Example 28] | 4.04
COC(CN(CCCF)c1c(-c2ccc(C(F)(F)F)c(F)c2F)c(Cl)nc2ncnn12)OC [Example 24] | 3.55
CCOC(CN(CCCF)c1c(-c2ccc(C(F)(F)F)c(F)c2F)c(Cl)nc2ncnn12)OCC [Example 32] | 4.16
COC(CN(CCCF)c1c(-c2ccc(C(F)(F)F)cc2F)c(Cl)nc2ncnn12)OC [Example 20] | 3.41
CC(=O)CN(CCCF)c1c(-c2cccc3c2OC(F)(F)O3)c(Cl)nc2ncnn12 [Example 39] | 2.80
COC(CN(CCCF)c1c(-c2cccc(C(F)(F)F)c2Cl)c(Cl)nc2ncnn12)OC [Example 22] | 3.42
COC(=O)CN(CCCF)c1c(-c2c(Cl)c(F)cc(C(F)(F)F)c2Cl)c(Cl)nc2ncnn12 [Example 12] | 3.58
CN(C)C(=O)CN(CCCF)c1c(-c2ccc(C(F)(F)F)c(F)c2F)c(Cl)nc2ncnn12 [Example 9] | 2.86
COC(=O)CN(CCCF)c1c(-c2c(F)cc(F)cc2C(F)(F)F)c(Cl)nc2ncnn12 [Example 74] | 2.92
CN(C)C(=O)CN(CCCF)c1c(-c2c(Cl)c(F)cc(C(F)(F)F)c2Cl)c(Cl)nc2ncnn12 [Example 4] | 3.01
CCOC(CN(CCCF)c1c(-c2cccc(C(F)(F)F)c2Cl)c(Cl)nc2ncnn12)OCC [Example 30] | 4.00
COC(=O)CN(CCCF)c1c(-c2ccc(C(F)(F)F)c(F)c2F)c(Cl)nc2ncnn12 [Example 16] | 3.29
CN(C)C(=O)CN(CCCF)c1c(-c2cccc(C(F)(F)F)c2Cl)c(Cl)nc2ncnn12 [Example 7] | 2.71
CCOC(CN(CCCF)c1c(-c2c(Cl)c(F)cc(C(F)(F)F)c2Cl)c(Cl)nc2ncnn12)OCC [Example 27] | 4.45
COC(CN(CCCF)c1c(-c2cccc3c2OC(F)(F)O3)c(Cl)nc2ncnn12)OC [Example 23] | 3.24
COC(CN(CCCF)c1c(-c2c(F)cc(F)cc2C(F)(F)F)c(Cl)nc2ncnn12)OC [Example 73] | 3.22
COC(CN(CCCF)c1c(-c2c(Cl)c(F)cc(C(F)(F)F)c2Cl)c(Cl)nc2ncnn12)OC [Example 19] | 3.82
CN(C)C(=O)CN(CCCF)c1c(-c2cccc3c2OC(F)(F)O3)c(Cl)nc2ncnn12 [Example 8] | 2.52

Other lines, results leading:

logP | SMILES
3.69 | C=C(Br)CN(CCCF)c1c(-c2cccc3c2OC(F)(F)O3)c(Cl)nc2ncnn12 [Example 47]
4.27 | C=C(Br)CN(CCCF)c1c(-c2c(Cl)c(F)cc(C(F)(F)F)c2Cl)c(Cl)nc2ncnn12 [Example 43]
3.14 | CC(=O)CN(CCCF)c1c(-c2ccc(C(F)(F)F)c(F)c2F)c(Cl)nc2ncnn12 [Example 40]
3.86 | C=C(Cl)CN(CCCF)c1c(-c2ccc(C(F)(F)F)c(F)c2F)c(Cl)nc2ncnn12 [Example 56]
4.27 | C=C(Cl)CN(CCCF)c1c(-c2cc(SC(F)(F)F)ccc2Cl)c(Cl)nc2ncnn12 [Example 53]
3.01 | CC(=O)CN(CCCF)c1c(-c2ccc(C(F)(F)F)cc2F)c(Cl)nc2ncnn12 [Example 36]
3.54 | COC(CN(CCCF)c1c(-c2cc(C(F)(F)F)ccc2Cl)c(Cl)nc2ncnn12)OC [Example 17]
3.17 | COC(=O)CN(CCCF)c1c(-c2cccc(C(F)(F)F)c2Cl)c(Cl)nc2ncnn12 [Example 15]
3.17 | COC(=O)CN(CCCF)c1c(-c2ccc(C(F)(F)F)cc2F)c(Cl)nc2ncnn12 [Example 13]
3.94 | C=C(Br)CN(CCCF)c1c(-c2ccc(C(F)(F)F)c(F)c2F)c(Cl)nc2ncnn12 [Example 48]
3.57 | COC(=O)CN(CCCF)c1c(-c2cc(SC(F)(F)F)ccc2Cl)c(Cl)nc2ncnn12 [Example 14]
3.85 | C=C(Br)CN(CCCF)c1c(-c2ccc(C(F)(F)F)cc2F)c(Cl)nc2ncnn12 [Example 44]
3.92 | C=C(Br)CN(CCCF)c1c(-c2cc(C(F)(F)F)ccc2Cl)c(Cl)nc2ncnn12 [Example 41]
3.77 | C=C(Cl)CN(CCCF)c1c(-c2ccc(C(F)(F)F)cc2F)c(Cl)nc2ncnn12 [Example 52]
4.10 | CCOC(CN(CCCF)c1c(-c2cc(C(F)(F)F)ccc2Cl)c(Cl)nc2ncnn12)OCC [Example 25]
4.19 | C=C(Cl)CN(CCCF)c1c(-c2c(Cl)c(F)cc(C(F)(F)F)c2Cl)c(Cl)nc2ncnn12 [Example 51]

logP | SMILES
3.61 | C=C(Cl)CN(CCCF)c1c(-c2cccc3c2OC(F)(F)O3)c(Cl)nc2ncnn12 [Example 55]
3.23 | COC(=O)CN(CCCF)c1c(-c2cc(C(F)(F)F)ccc2Cl)c(Cl)nc2ncnn12 [Example 10]
3.14 | CN(C)C(=O)CN(CCCF)c1c(-c2cc(SC(F)(F)F)ccc2Cl)c(Cl)nc2ncnn12 [Example 6]
3.90 | COC(CN(CCCF)c1c(-c2cc(SC(F)(F)F)ccc2Cl)c(Cl)nc2ncnn12)OC [Example 21]
3.73 | C=C(Br)CN(CCCF)c1c(-c2cccc(C(F)(F)F)c2Cl)c(F)nc2ncnn12 [Example 46]
3.84 | C=C(Cl)CN(CCCF)c1c(-c2cc(C(F)(F)F)ccc2Cl)c(Cl)nc2ncnn12 [Example 49]
2.71 | CN(C)C(=O)CN(CCCF)c1c(-c2ccc(C(F)(F)F)cc2F)c(Cl)nc2ncnn12 [Example 5]
3.84 | C=C(Br)CN(CCCF)c1c(-c2cc(C(F)(F)F)ccc2C(F)(F)F)c(F)nc2ncnn12 [Example 42]
3.01 | CC(=O)CN(CCCF)c1c(-c2cccc(C(F)(F)F)c2Cl)c(Cl)nc2ncnn12 [Example 38]
2.77 | CN(C)C(=O)CN(CCCF)c1c(-c2cc(C(F)(F)F)ccc2Cl)c(Cl)nc2ncnn12 [Example 2]
3.42 | CC(=O)CN(CCCF)c1c(-c2cc(SC(F)(F)F)ccc2Cl)c(Cl)nc2ncnn12 [Example 37]
3.07 | CC(=O)CN(CCCF)c1c(-c2cc(C(F)(F)F)ccc2Cl)c(Cl)nc2ncnn12 [Example 33]
4.36 | C=C(Br)CN(CCCF)c1c(-c2cc(SC(F)(F)F)ccc2Cl)c(Cl)nc2ncnn12 [Example 45]
4.47 | CCOC(CN(CCCF)c1c(-c2cc(SC(F)(F)F)ccc2Cl)c(Cl)nc2ncnn12)OCC [Example 29]
3.66 | C=C(Cl)CN(CCCF)c1c(-c2cccc(C(F)(F)F)c2Cl)c(F)nc2ncnn12 [Example 54]

Same assay, conditions: log P (S), stated in the preparation example

SMILES | log P (S)
COC(=O)CN(CCCF)c1c(-c2cccc3c2OC(F)(F)O3)c(Cl)nc2ncnn12 [Example 1] | 2.93
